Experimental data taken from US20160367623A1, “AGONISTS OF GUANYLATE CYCLASE USEFUL FOR THE TREATMENT OF GASTROINTESTINAL DISORDERS, INFLAMMATION, CANCER AND OTHER DISORDERS” (priority 2015, published 2016).
Bridge positions count the residues as written; N and C are the ends. Ends that are not written are not given here.

System: patients with chronic idiopathic constipation (CIC)
Experiment: Second phase 3 CIC trial: CSBM weekly responders by week
Format: in vivo, human
Conditions: MRA
Source text: Both trials include a two-week pre-treatment baseline period, a 12-week treatment period, and a two-week post-treatment period. The phase 3 CIC program was designed to support regulatory submission in the U. S.
The primary endpoint for both trials is the proportion of durable overall responders (%), which is the current regulatory endpoint required for U.S. approval in CIC. The FDA has defined a durable overall responder as a patient who fulfills both ≧3 complete spontaneous bowel movements (CSBMs) per week plus an increase of ≧1 CSBM from baseline in the same week, for 9 out of the 12 treatment weeks. In addition, the same patient must be an overall responder for at least 3 of the last 4 treatment weeks in order to be considered a durable overall responder.
Patients were selected using Rome 3 criteria modified for CIC and had (1) fewer than 3 defecations per week, (2) loose stools occurring rarely without laxatives, (3) inadequate criteria for irritable bowel syndrome with constipation (IBS-C), and (4) at least two of the following applied to at least 25% of defecations: (a) straining during evacuation, (b) lumpy or hard stools, (c) sensation of anorectal obstruction or blockage. Rome 3 requires patients to fulfill the criteria for the last 3 months with symptom onset at least 6 months prior to diagnosis.

[1] = Week 6, 3 mg, ITT Population-Excluding Duplicate Patients
[2] = Week 6, 6 mg, ITT Population-Excluding Duplicate Patients
[3] = Week 6, Active Combined, ITT Population-Excluding Duplicate Patients
[4] = Week 6, Active Combined, ITT Population
[5] = Week 7, 3 mg, ITT Population-Excluding Duplicate Patients
[6] = Week 7, 6 mg, ITT Population-Excluding Duplicate Patients
[7] = Week 7, Active Combined, ITT Population-Excluding Duplicate Patients
[8] = Week 7, Active Combined, ITT Population
[9] = Week 8, 3 mg, ITT Population-Excluding Duplicate Patients
[10] = Week 8, 6 mg, ITT Population-Excluding Duplicate Patients
[11] = Week 8, Active Combined, ITT Population-Excluding Duplicate Patients
[12] = Week 8, Active Combined, ITT Population
[13] = Week 9, 3 mg, ITT Population-Excluding Duplicate Patients
[14] = Week 9, 6 mg, ITT Population-Excluding Duplicate Patients

**Q.** What does the source list for “Asn^1-Asp^2-Glu^3-Cys^4-Glu^5-Leu^6-Cys^7-Val^8-Asn^9-Val^10-Ala^11-Cys^12-Thr^13-Gly^14-Cys^15-Leu^16 (NDECELCVNVACTGCL; disulfide 4-12, 7-15) [Plecanatide, uroguanylin analogue, guanylate cyclase-C agonist; (C4:C12, C7:C15) bicycle peptide]”?
**A.** Non-Responders, n (%) (Week 5, Active Combined, ITT Population): 605 (67.8) n (%); Difference in Proportions (adjusted) (Week 6, 3 mg minus placebo, All Randomized (includes Duplicate Patients)): 0.100; Odds Ratio (adjusted) (Week 6, 3 mg vs placebo, All Randomized (includes Duplicate Patients)): 0.593; CSBM Weekly Responders, n (%) (Week 6, 3 mg, ITT Population): 137 (30.9) n (%); Non-Responders, n (%) (Week 6, 3 mg, ITT Population): 306 (69.1) n (%); CSBM Weekly Responders, n (%) [1]: 136 (31.3) n (%); Non-Responders, n (%) [1]: 298 (68.7) n (%); Difference in Proportions (adjusted) (Week 6, 6 mg minus placebo, All Randomized (includes Duplicate Patients)): 0.110; Odds Ratio (adjusted) (Week 6, 6 mg vs placebo, All Randomized (includes Duplicate Patients)): 0.566; CSBM Weekly Responders, n (%) (Week 6, 6 mg, ITT Population): 146 (32.5) n (%); Non-Responders, n (%) (Week 6, 6 mg, ITT Population): 303 (67.5) n (%); CSBM Weekly Responders, n (%) [2]: 146 (33.0) n (%); Non-Responders, n (%) [2]: 297 (67.0) n (%); Difference in Proportions (adjusted) (Week 6, 3 mg minus placebo, ITT Population-Excluding Duplicate Patients): 0.096; Difference in Proportions (adjusted) (Week 6, 3 mg minus placebo, ITT Population): 0.093; Odds Ratio (adjusted) (Week 6, 3 mg vs placebo, ITT Population-Excluding Duplicate Patients): 0.610; Odds Ratio (adjusted) (Week 6, 3 mg vs placebo, ITT Population): 0.615; Difference in Proportions (adjusted) (Week 6, 6 mg minus placebo, ITT Population-Excluding Duplicate Patients): 0.112; Difference in Proportions (adjusted) (Week 6, 6 mg minus placebo, ITT Population): 0.109; Odds Ratio (adjusted) (Week 6, 6 mg vs placebo, ITT Population-Excluding Duplicate Patients): 0.565; Odds Ratio (adjusted) (Week 6, 6 mg vs placebo, ITT Population): 0.571; CSBM Weekly Responders, n (%) [3]: 282 (32.2) n (%); Non-Responders, n (%) [3]: 595 (67.8) n (%); CSBM Weekly Responders, n (%) [4]: 283 (31.7) n (%); Non-Responders, n (%) [4]: 609 (68.3) n (%); Difference in Proportions (adjusted) (Week 7, 3 mg minus placebo, All Randomized (includes Duplicate Patients)): 0.091; Odds Ratio (adjusted) (Week 7, 3 mg vs placebo, All Randomized (includes Duplicate Patients)): 0.634; CSBM Weekly Responders, n (%) (Week 7, 3 mg, ITT Population): 145 (32.7) n (%); Non-Responders, n (%) (Week 7, 3 mg, ITT Population): 298 (67.3) n (%); CSBM Weekly Responders, n (%) [5]: 144 (33.2) n (%); Non-Responders, n (%) [5]: 290 (66.8) n (%); Difference in Proportions (adjusted) (Week 7, 6 mg minus placebo, All Randomized (includes Duplicate Patients)): 0.075; Odds Ratio (adjusted) (Week 7, 6 mg vs placebo, All Randomized (includes Duplicate Patients)): 0.681; CSBM Weekly Responders, n (%) (Week 7, 6 mg, ITT Population): 140 (31.2) n (%); Non-Responders, n (%) (Week 7, 6 mg, ITT Population): 309 (68.8) n (%); CSBM Weekly Responders, n (%) [6]: 140 (31.6) n (%); Non-Responders, n (%) [6]: 303 (68.4) n (%); Difference in Proportions (adjusted) (Week 7, 3 mg minus placebo, ITT Population-Excluding Duplicate Patients): 0.089; Difference in Proportions (adjusted) (Week 7, 3 mg minus placebo, ITT Population): 0.085; Odds Ratio (adjusted) (Week 7, 3 mg vs placebo, ITT Population-Excluding Duplicate Patients): 0.645; Odds Ratio (adjusted) (Week 7, 3 mg vs placebo, ITT Population): 0.659; Difference in Proportions (adjusted) (Week 7, 6 mg minus placebo, ITT Population-Excluding Duplicate Patients): 0.074; Difference in Proportions (adjusted) (Week 7, 6 mg minus placebo, ITT Population): 0.069; Odds Ratio (adjusted) (Week 7, 6 mg vs placebo, ITT Population-Excluding Duplicate Patients): 0.693; Odds Ratio (adjusted) (Week 7, 6 mg vs placebo, ITT Population): 0.707; CSBM Weekly Responders, n (%) [7]: 284 (32.4) n (%); Non-Responders, n (%) [7]: 593 (67.6) n (%); CSBM Weekly Responders, n (%) [8]: 285 (32.0) n (%); Non-Responders, n (%) [8]: 607 (68.0) n (%); Difference in Proportions (adjusted) (Week 8, 3 mg minus placebo, All Randomized (includes Duplicate Patients)): 0.076; Odds Ratio (adjusted) (Week 8, 3 mg vs placebo, All Randomized (includes Duplicate Patients)): 0.687; CSBM Weekly Responders, n (%) (Week 8, 3 mg, ITT Population): 145 (32.7) n (%); Non-Responders, n (%) (Week 8, 3 mg, ITT Population): 298 (67.3) n (%); CSBM Weekly Responders, n (%) [9]: 144 (33.2) n (%); Non-Responders, n (%) [9]: 290 (66.8) n (%); Difference in Proportions (adjusted) (Week 8, 6 mg minus placebo, All Randomized (includes Duplicate Patients)): 0.067; Odds Ratio (adjusted) (Week 8, 6 mg vs placebo, All Randomized (includes Duplicate Patients)): 0.716; CSBM Weekly Responders, n (%) (Week 8, 6 mg, ITT Population): 144 (32.1) n (%); Non-Responders, n (%) (Week 8, 6 mg, ITT Population): 305 (67.9) n (%); CSBM Weekly Responders, n (%) [10]: 143 (32.3) n (%); Non-Responders, n (%) [10]: 300 (67.7) n (%); Difference in Proportions (adjusted) (Week 8, 3 mg minus placebo, ITT Population-Excluding Duplicate Patients): 0.073; Difference in Proportions (adjusted) (Week 8, 3 mg minus placebo, ITT Population): 0.069; Odds Ratio (adjusted) (Week 8, 3 mg vs placebo, ITT Population-Excluding Duplicate Patients): 0.703; Odds Ratio (adjusted) (Week 8, 3 mg vs placebo, ITT Population): 0.717; Difference in Proportions (adjusted) (Week 8, 6 mg minus placebo, ITT Population-Excluding Duplicate Patients): 0.064; Difference in Proportions (adjusted) (Week 8, 6 mg minus placebo, ITT Population): 0.062; Odds Ratio (adjusted) (Week 8, 6 mg vs placebo, ITT Population-Excluding Duplicate Patients): 0.731; Odds Ratio (adjusted) (Week 8, 6 mg vs placebo, ITT Population): 0.738; CSBM Weekly Responders, n (%) [11]: 287 (32.7) n (%); Non-Responders, n (%) [11]: 590 (67.3) n (%); CSBM Weekly Responders, n (%) [12]: 289 (32.4) n (%); Non-Responders, n (%) [12]: 603 (67.6) n (%); Difference in Proportions (adjusted) (Week 9, 3 mg minus placebo, All Randomized (includes Duplicate Patients)): 0.084; Odds Ratio (adjusted) (Week 9, 3 mg vs placebo, All Randomized (includes Duplicate Patients)): 0.656; CSBM Weekly Responders, n (%) (Week 9, 3 mg, ITT Population): 147 (33.2) n (%); Non-Responders, n (%) (Week 9, 3 mg, ITT Population): 296 (66.8) n (%); CSBM Weekly Responders, n (%) [13]: 146 (33.6) n (%); Non-Responders, n (%) [13]: 288 (66.4) n (%); Difference in Proportions (adjusted) (Week 9, 6 mg minus placebo, All Randomized (includes Duplicate Patients)): 0.073; Odds Ratio (adjusted) (Week 9, 6 mg vs placebo, All Randomized (includes Duplicate Patients)): 0.691; CSBM Weekly Responders, n (%) (Week 9, 6 mg, ITT Population): 141 (31.4) n (%); Non-Responders, n (%) (Week 9, 6 mg, ITT Population): 308 (68.6) n (%); CSBM Weekly Responders, n (%) [14]: 140 (31.6) n (%); Non-Responders, n (%) [14]: 303 (68.4) n (%); Difference in Proportions (adjusted) (Week 9, 3 mg minus placebo, ITT Population-Excluding Duplicate Patients): 0.082; Difference in Proportions (adjusted) (Week 9, 3 mg minus placebo, ITT Population): 0.082; Odds Ratio (adjusted) (Week 9, 3 mg vs placebo, ITT Population-Excluding Duplicate Patients): 0.673; Odds Ratio (adjusted) (Week 9, 3 mg vs placebo, ITT Population): 0.67; Difference in Proportions (adjusted) (Week 9, 6 mg minus placebo, ITT Population-Excluding Duplicate Patients): 0.062; Difference in Proportions (adjusted) (Week 9, 6 mg minus placebo, ITT Population): 0.065; Odds Ratio (adjusted) (Week 9, 6 mg vs placebo, ITT Population-Excluding Duplicate Patients): 0.738
